Legend:
Raji cells = type: cell-based, human; settings: bendamustine alone, 0-20 μM, 48 hours
Experimental: (§1) Briefly, Human Burkitt lymphoma (Raji [ATCC, cat. no. CCL-86]) and DLBCL (SU-DHL-4 [Deutsche Sammlung von Mikroorganismen and Zellkulturen—DSMZ, cat. no. ACC-495]) cell lines were used as target cells. Cells were cultured in culture medium (RPMI 1640 with HEPES and L-Glutamine supplemented with 10% heat-inactivated donor bovine serum with iron, and 1% [v/v] penicillin/streptomycin) to which 2 mM L-glutamine, and 1 mM sodium pyruvate were added, at 37° C., 5% CO2. T cells, which were isolated from human healthy donor buffy coats by negative selection using the RosetteSep™ Human T Cell Enrichment Cocktail (Stemcell Technologies) followed by density centrifugation over a Ficoll gradient, both according to the manufacturer's instructions, were used as effector cells. Isolated cells were washed twice in phosphate buffered saline (PBS) and counted using acridine orange/propidium iodide (AO/PI) viability staining solution (Nexcelom Bioscience) on a Cellometer® Auto 2000 Cell Viability Counter. […] B-cell viability and T-cell activation were measured by flow cytometry (count of CD22-positive cells; expression of the activation markers CD69, CD25, and CD107 [LAMP-1] on CD4+ and CD8+ T cells). The percentage cytotoxicity was calculated as follows: % cytotoxicity=100−([cell countsample/cell countno antibody]×100%)

SU-DHL-4 cells = type: cell-based, human; settings: bendamustine alone, 0-20 μM, 48 hours
Experimental: as §1

CD20 = biological target: T1, CD20 (Homo sapiens, UniProt P11836); settings: rituximab versus IgG1-CD20; different epitopes; cited from earlier work
T1 sequence (P11836 1-297): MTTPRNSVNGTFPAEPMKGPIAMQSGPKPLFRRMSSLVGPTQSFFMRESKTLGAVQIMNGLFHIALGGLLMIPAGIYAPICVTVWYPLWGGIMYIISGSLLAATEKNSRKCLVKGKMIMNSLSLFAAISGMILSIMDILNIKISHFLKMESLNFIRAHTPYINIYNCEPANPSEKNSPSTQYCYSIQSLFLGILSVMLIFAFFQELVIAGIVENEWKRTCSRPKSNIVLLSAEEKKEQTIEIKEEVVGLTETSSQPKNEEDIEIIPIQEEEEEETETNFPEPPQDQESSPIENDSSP

follicular lymphoma = settings: double-refractory cases; cited from earlier work
[1] = system: T cells in presence of Raji cells; test: In vitro T-cell activation assay, T cells incubated with Raji cells; type: cell-based, human; settings: Raji target cells
Experimental: (§2) Briefly, Human Burkitt lymphoma (Raji [ATCC, cat. no. CCL-86]) and DLBCL (SU-DHL-4 [Deutsche Sammlung von Mikroorganismen and Zellkulturen—DSMZ, cat. no. ACC-495]) cell lines were used as target cells. Cells were cultured in culture medium (RPMI 1640 with HEPES and L-Glutamine supplemented with 10% heat-inactivated donor bovine serum with iron, and 1% [v/v] penicillin/streptomycin) to which 2 mM L-glutamine, and 1 mM sodium pyruvate were added, at 37° C., 5% CO2. T cells, which were isolated from human healthy donor buffy coats by negative selection using the RosetteSep™ Human T Cell Enrichment Cocktail (Stemcell Technologies) followed by density centrifugation over a Ficoll gradient, both according to the manufacturer's instructions, were used as effector cells. Isolated cells were washed twice in phosphate buffered saline (PBS) and counted using acridine orange/propidium iodide (AO/PI) viability staining solution (Nexcelom Bioscience) on a Cellometer® Auto 2000 Cell Viability Counter. T cells (100,000 cells/well) were incubated with Raji or SU-DHL-4 cells (50,000 cells/well) in culture medium in the presence of epcoritamab (0.033 pg/mL-333 ng/mL) and bendamustine (0-20 μM) at 37° C., 5% CO2 for 48 hours. B-cell viability and T-cell activation were measured by flow cytometry (count of CD22-positive cells; expression of the activation markers CD69, CD25, and CD107 [LAMP-1] on CD4+ and CD8+ T cells). The percentage cytotoxicity was calculated as follows: % cytotoxicity=100−([cell countsample/cell countno antibody]×100%)

[2] = system: T cells in presence of SU-DHL-4 cells; test: In vitro T-cell activation assay, T cells incubated with SU-DHL-4 cells; type: cell-based, human; settings: SU-DHL-4 target cells
Experimental: as §2

R/R B-NHL patients = test: Ongoing clinical trial of epcoritamab monotherapy (NCT03625037); type: in vivo, human; settings: preliminary data
From the text: Epcoritamab as monotherapy is currently in a clinical trial for the treatment of relapsed/refractory (R/R) B-NHL (ClinicalTrials.gov Identifier: NCT03625037).

[3] = system: CD20-expressing Raji-luc tumor cells; settings: NOD-SCID mice injected with Raji-luc tumor cells and PBMCs; even in presence of excess IgG1-RTX-FEAR; cited from earlier work
[4] = system: primary DLBCL and follicular lymphoma patient biopsies; settings: biopsies taken a certain time after anti-CD20 antibody administration; cited from earlier work
[5] = bendamustine 0-20 μM, data not shown
[6] = epcoritamab 0.033 pg/mL-333 ng/mL, 48 hours

For Cn1c(CCCC(=O)O)nc2cc(N(CCCl)CCCl)ccc21 [bendamustine, 4-[5-[Bis(2-chloroethyl)amino]-1-methyl-1H-benzo[d]imidazole-2-yl]butanoic acid], which “number of viable B cells” value (Raji cells) is on record?
The value was “decreased the number of viable B cells in a dose dependent manner”.

And the “number of viable B cells” value (SU-DHL-4 cells)?
The value was “decreased the number of viable B cells in a dose dependent manner”.

With “IgG1-CD20: CD20 antibody of which the CD20 arm of epcoritamab is derived” as the compound, how does the “competition for CD20 binding” value (CD20) read?
Its value is “compete for CD20 binding”.

What does the source list for CC[C@H](Nc1ncnc2[nH]cnc12)c1nc2cccc(F)c2c(=O)n1-c1ccccc1 [idelalisib]?
1-year PFS (follicular lymphoma): 43%; toxicities (follicular lymphoma): several toxicities leading to treatment discontinuation

What does the source list for “Epcoritamab: IgG1 bispecific CD3xCD20 antibody, heavy/light chains SEQ ID NOs: 24, 25 and 26, 27; CAS 2134641-34-0”?
epcoritamab-induced T-cell activation in presence of bendamustine ([1]; bendamustine 0-20 μM, 48 hours): not affected by the presence of bendamustine at all concentrations tested; upregulation of activation markers on CD4+ T cells in presence of bendamustine [1, 5]: not affected by bendamustine; activation of CD8+ T cells (CD69, CD25, LAMP-1 upregulation) [1, 6]: induced concentration-dependent activation of CD8+ T cells; epcoritamab-induced T-cell activation in presence of bendamustine ([2]; bendamustine 0-20 μM, 48 hours): not affected by the presence of bendamustine at all concentrations tested; upregulation of activation markers on CD4+ T cells in presence of bendamustine [2, 5]: not affected by bendamustine; activation of CD8+ T cells (CD69, CD25, LAMP-1 upregulation) [2, 6]: induced concentration-dependent activation of CD8+ T cells; tolerability (R/R B-NHL patients): tolerated at doses up to at least 48 mg, including 60 mg; tumor growth [3]: effectively reduce tumor growth; T-cell-mediated cytotoxicity [4]: induced T-cell-mediated cytotoxicity
